Measured values published in ChEMBL document CHEMBL3259804, “Syk inhibitors with high potency in presence of blood” (Bioorg Med Chem Lett, 2014).

Assays:
Bone marrow cell = test: Inhibition of IL3 dependent proliferation in […] mouse bone marrow cells using [3H]thymidine by liquid scintillation counting; type: functional, cell-based
[1] = target: T1, Tyrosine-protein kinase ZAP-70 (Homo sapiens, UniProt P43403); test: Inhibition of ZAP70 (unknown origin)
T1 sequence (P43403 whole entry): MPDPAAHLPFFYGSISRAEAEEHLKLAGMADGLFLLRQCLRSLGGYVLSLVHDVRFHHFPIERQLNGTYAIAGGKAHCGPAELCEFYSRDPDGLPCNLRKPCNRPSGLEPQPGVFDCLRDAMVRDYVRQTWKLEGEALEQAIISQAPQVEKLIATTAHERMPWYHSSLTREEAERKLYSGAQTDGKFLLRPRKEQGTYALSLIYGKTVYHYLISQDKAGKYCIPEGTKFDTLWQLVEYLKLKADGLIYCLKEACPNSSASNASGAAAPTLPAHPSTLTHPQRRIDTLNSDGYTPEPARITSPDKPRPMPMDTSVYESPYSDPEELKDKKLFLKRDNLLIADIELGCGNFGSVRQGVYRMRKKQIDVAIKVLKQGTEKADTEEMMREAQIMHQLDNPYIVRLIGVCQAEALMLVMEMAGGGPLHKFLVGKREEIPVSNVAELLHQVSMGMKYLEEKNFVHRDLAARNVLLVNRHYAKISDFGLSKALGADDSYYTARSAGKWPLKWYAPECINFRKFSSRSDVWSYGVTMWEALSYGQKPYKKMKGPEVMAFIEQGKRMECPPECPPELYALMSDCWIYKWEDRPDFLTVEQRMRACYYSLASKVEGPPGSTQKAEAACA

[2] = target: T2, Tyrosine-protein kinase SYK (Homo sapiens, UniProt P43405); test: Inhibition of Syk (unknown origin) using 4 uM peptide assessed as product formation after 60 mins incubation by microfluidic mobility shift assay
[3] = target: Tyrosine-protein kinase JAK2 (Homo sapiens, UniProt O60674); test: Inhibition of JAK2 (unknown origin)
Chain of Tyrosine-protein kinase JAK2 (O60674 whole entry): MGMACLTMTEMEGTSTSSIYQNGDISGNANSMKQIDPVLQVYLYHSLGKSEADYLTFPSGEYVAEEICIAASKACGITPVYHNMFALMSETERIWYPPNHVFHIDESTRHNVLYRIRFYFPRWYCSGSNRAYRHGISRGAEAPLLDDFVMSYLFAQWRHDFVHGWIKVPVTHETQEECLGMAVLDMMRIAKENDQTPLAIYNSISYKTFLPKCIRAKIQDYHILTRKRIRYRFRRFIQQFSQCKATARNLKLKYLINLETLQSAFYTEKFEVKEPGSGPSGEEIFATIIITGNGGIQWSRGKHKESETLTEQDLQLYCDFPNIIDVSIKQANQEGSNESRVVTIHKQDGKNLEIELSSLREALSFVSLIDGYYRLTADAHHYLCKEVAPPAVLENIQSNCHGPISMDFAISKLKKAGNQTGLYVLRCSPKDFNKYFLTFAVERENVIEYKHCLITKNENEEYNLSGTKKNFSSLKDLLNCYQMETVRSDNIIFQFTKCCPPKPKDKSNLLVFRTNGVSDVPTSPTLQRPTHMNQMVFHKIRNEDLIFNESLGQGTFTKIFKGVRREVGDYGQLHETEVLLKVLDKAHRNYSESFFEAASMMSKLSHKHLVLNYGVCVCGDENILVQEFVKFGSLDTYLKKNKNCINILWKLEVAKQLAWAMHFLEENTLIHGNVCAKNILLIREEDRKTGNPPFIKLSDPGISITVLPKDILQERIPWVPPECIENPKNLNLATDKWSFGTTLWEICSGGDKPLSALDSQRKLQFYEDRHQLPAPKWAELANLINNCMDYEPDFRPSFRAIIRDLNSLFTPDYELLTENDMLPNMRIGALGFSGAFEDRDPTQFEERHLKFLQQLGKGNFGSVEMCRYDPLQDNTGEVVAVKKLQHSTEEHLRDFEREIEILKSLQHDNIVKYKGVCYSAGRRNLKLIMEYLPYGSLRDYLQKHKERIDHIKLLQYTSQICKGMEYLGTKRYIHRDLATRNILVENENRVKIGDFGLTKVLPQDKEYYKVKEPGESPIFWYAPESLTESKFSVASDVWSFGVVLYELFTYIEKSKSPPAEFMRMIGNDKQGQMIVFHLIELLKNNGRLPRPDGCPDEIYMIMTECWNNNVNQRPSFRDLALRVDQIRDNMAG

[4] = (§1) Half life in rat liver microsomes; type: ADME; details: liver microsomes
[5] = target: T2, Tyrosine-protein kinase SYK; test: Inhibition of Syk in anti IgM-stimulated human Ramos cells assessed as BLNK phosphorylation by cellular assay
[6] = target: Tyrosine-protein kinase Lyn (Homo sapiens, UniProt P07948); test: Inhibition of Lyn (unknown origin)
Chain of Tyrosine-protein kinase Lyn (P07948 whole entry): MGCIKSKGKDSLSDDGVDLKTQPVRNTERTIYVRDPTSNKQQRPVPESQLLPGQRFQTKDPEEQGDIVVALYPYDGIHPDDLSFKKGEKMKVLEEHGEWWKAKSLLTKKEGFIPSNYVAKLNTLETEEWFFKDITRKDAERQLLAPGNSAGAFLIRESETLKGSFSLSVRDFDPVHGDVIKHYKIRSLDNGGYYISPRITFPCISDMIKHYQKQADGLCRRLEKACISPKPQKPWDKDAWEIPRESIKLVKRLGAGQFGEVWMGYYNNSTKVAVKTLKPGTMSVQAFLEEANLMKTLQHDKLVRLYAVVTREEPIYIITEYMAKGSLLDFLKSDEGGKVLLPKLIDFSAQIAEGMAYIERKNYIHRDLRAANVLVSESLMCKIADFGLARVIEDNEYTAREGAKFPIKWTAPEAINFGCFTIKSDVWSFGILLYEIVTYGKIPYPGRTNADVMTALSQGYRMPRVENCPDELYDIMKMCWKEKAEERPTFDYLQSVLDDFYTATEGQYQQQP

[7] = Half life in rat liver S9 fraction assessed as conversion into 5-(1H-indol-7-ylamino)-7-((1R,2S)-2-aminocyclohexylamino)pyrido[4,3-d]pyrimidine-2,4(1H,3H)-dione in presence of NADPH; type: ADME, subcellular
Liver = test: Half life in rat liver S9 fraction assessed as conversion into 5-(1H-indol-7-ylamino)-7-((1R,2S)-2-aminocyclohexylamino)pyrido[4,3-d]pyrimidine-2,4(1H,3H)-dione; type: ADME, subcellular
[8] = target: T2, Tyrosine-protein kinase SYK; test: Inhibition of Syk in human whole blood assessed as inhibition of P-SLP76 in CD14+ monocytes by flow cytometry
[9] = Drug metabolism in pig liver microsomes assessed as conversion into 5-(1H-indol-7-ylamino)-7-((1R,2S)-2-aminocyclohexylamino)pyrido[4,3-d]pyrimidine-2,4(1H,3H)-dione by NMR; type: ADME, Sus scrofa
[10] = Apparent permeability from basolateral to apical side in human Caco2 cells; type: ADME, cell-based; details: Caco-2
[11] = Apparent permeability from apical to basolateral side in human Caco2 cells; type: ADME, cell-based; details: Caco-2
Rattus norvegicus [12] = test: Dose normalized AUC in Sprague-Dawley rat at 1 mg/kg, iv; type: ADME, organism-based; design: dose 1 mg/kg, route intravenous; details: in vivo
[13] = Clearance in Sprague-Dawley rat at 1 mg/kg, iv and 3 mg/kg, po; type: ADME, organism-based; details: in vivo
Rattus norvegicus [14] = test: Cmax/dose in Sprague-Dawley rat at 1 mg/kg, iv and 3 mg/kg, po; type: ADME, organism-based; details: in vivo
Rattus norvegicus [15] = test: Dose normalized AUC in Sprague-Dawley rat at 3 mg/kg, po; type: ADME, organism-based; design: dose 3 mg/kg, route oral; details: in vivo
[16] = Volume of distribution at steady state in Sprague-Dawley rat at 1 mg/kg, iv and 3 mg/kg, po; type: ADME, organism-based; details: in vivo, read-out: Vdss
Liver microsome = test: as §1; type: ADME; details: microsomes
[17] = Half life in dog liver S9 fraction; type: ADME, subcellular, Canis lupus familiaris
[18] = Terminal half life Sprague-Dawley rat at 1 mg/kg, iv and 3 mg/kg, po; type: ADME, organism-based; details: in vivo, read-out: beta t1/2 (converted)
[19] = Plasma bioavailability in Sprague-Dawley rat at 1 mg/kg, iv and 3 mg/kg, po; type: ADME, organism-based
[20] = target: Voltage-gated inwardly rectifying potassium channel KCNH2 (Homo sapiens, UniProt Q12809); test: Inhibition of human ERG by Q-patch assay
Chain of Voltage-gated inwardly rectifying potassium channel KCNH2 (Q12809 whole entry): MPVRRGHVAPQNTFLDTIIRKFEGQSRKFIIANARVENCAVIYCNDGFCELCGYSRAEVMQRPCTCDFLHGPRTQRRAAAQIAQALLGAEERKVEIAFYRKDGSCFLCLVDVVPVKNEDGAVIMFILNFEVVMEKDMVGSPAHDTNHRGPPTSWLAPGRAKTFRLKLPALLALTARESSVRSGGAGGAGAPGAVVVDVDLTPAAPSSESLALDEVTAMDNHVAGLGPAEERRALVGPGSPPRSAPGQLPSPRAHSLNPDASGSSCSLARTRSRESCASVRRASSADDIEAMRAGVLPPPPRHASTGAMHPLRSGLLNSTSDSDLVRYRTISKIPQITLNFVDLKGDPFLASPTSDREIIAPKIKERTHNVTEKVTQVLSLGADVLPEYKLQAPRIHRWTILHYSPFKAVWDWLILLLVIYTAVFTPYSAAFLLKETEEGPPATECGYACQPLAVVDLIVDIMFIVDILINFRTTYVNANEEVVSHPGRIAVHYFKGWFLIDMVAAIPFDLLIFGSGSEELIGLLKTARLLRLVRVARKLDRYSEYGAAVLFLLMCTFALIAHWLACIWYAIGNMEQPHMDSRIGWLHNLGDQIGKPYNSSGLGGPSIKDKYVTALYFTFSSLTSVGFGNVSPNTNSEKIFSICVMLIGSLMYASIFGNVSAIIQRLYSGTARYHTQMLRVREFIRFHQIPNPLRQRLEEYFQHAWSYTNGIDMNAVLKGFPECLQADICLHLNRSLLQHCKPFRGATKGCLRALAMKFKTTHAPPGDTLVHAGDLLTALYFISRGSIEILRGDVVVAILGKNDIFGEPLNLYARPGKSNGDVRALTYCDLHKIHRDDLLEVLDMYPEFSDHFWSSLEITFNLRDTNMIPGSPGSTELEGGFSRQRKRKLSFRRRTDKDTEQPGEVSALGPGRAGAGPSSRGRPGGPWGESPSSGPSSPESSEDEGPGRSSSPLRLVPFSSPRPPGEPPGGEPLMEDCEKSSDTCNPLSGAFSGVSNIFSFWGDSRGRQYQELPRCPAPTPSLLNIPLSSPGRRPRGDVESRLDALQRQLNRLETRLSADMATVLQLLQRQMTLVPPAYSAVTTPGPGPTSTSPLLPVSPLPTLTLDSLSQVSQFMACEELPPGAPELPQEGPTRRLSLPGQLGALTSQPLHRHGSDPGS

| SMILES | IC50 (Bone marrow cell) [µM] | IC50 [1] [nM] | IC50 [2] [nM] | IC50 [3] [nM] | half-life [4] [min] | IC50 [5] [nM] | IC50 [6] [nM] | IC50 [8] [nM] | other results |
| --- | --- | --- | --- | --- | --- | --- | --- | --- | --- |
| COc1cc(Nc2ncc(F)c(Nc3ccc4c(n3)NC(=O)C(C)(C)O4)n2)cc(OC)c1OC [R-406] | 0.147 |  |  |  |  |  |  |  |  |
| N[C@H]1CCCC[C@H]1Nc1cc2cc[nH]c(=O)c2c(Nc2cccc3c(Cl)c[nH]c23)n1 |  | 350 | 4 | 1230 | 9 | 283 | 1800 |  | t1/2 [7]: > 2 h; t1/2 (Liver): > 2 h |
| Cn1ccc2cccc(Nc3nc(N[C@@H]4CCCC[C@@H]4N)cc4nc[nH]c(=O)c34)c21 | > 10 | > 10000 | 1600 | > 10000 | 9 | 9270 | > 10000 |  |  |
| O=c1[nH]cnc2cc(N[C@@H]3CCCNC3)nc(Nc3cccc4cc[nH]c34)c12 |  | 3000 | 165 | 950 |  | 378 | 315 | 1990 |  |
| NC(=O)c1cnc(N[C@@H]2CCCC[C@@H]2N)nc1Nc1cccc(-n2nccn2)c1 | 5.85 |  |  |  |  |  |  |  |  |
| N[C@H]1CCCC[C@H]1Nc1cc2[nH]c(=O)[nH]c(=O)c2c(Nc2cccc3cc[nH]c23)n1 |  |  | 1900 |  |  |  |  |  |  |
| C[C@H](N)CNc1cc2nc[nH]c(=O)c2c(Nc2cccc3cc[nH]c23)n1 | > 10 | 445 | 21 | 980 | 10 | 209 | 84 | 1010 |  |
| N[C@H]1CCCC[C@H]1Nc1cc2nc[nH]c(=O)c2c(Nc2cccc3cc[nH]c23)n1 |  |  |  |  |  |  |  |  | Drug metabolism [9]: metabolite_detected; Papp B→A [10]: 15.2 ×10⁻⁶ cm/s; Papp A→B [11]: 9.5 ×10⁻⁶ cm/s; AUC/dose (Rattus norvegicus [12]): 629 nM·h; clearance [13]: 69 mL/min/kg; Cmax/dose (Rattus norvegicus [14]): 1 nM; AUC/dose (Rattus norvegicus [15]): 9 nM·h; Vd [16]: 31 L/kg; t1/2 (Liver microsome): 22 min; half-life [17]: > 120 min; half-life [18]: 660 min; t1/2 [7]: < 0.083 h; t1/2 (Liver): < 0.083 h; bioavailability [19]: 1% |
| Cc1c[nH]c2c(Nc3nc(N[C@@H]4CCCC[C@@H]4N)cc4cc[nH]c(=O)c34)cccc12 | 4.94 | 81 | 3 | 300 | 27 | 95 | 550 | 430 |  |
| N[C@H]1COCC[C@H]1Nc1cc2nc[nH]c(=O)c2c(Nc2cccc3cc[nH]c23)n1 | 7.47 | 375 | 20 | 290 | 14 | 60 | 230 | 232 |  |
| N[C@H]1CCCC[C@H]1Nc1cc2nc[nH]c(=O)c2c(Nc2cccc3[nH]ccc23)n1 | 4.14 | 14 | 1 | 83 | 17 | 35 | 32 | 322 |  |
| N[C@H]1CCCC[C@H]1Nc1cc2nc[nH]c(=O)c2c(Nc2cccc(-n3nccn3)c2)n1 | 0.249 | 74 | 5 |  |  | 778 |  |  |  |
| Cc1c[nH]c2c(Nc3nc(N[C@@H]4CCOC[C@@H]4N)cc4nc[nH]c(=O)c34)cccc12 | 5.98 | 47 | 1 | 184 | 20 | 37 | 69 | 299 | IC50 [20]: > 30 µM; AUC/dose (Rattus norvegicus [12]): 401 nM·h; clearance [13]: 112 mL/min/kg; Cmax/dose (Rattus norvegicus [14]): 2 nM; AUC/dose (Rattus norvegicus [15]): 9 nM·h; Vd [16]: 12 L/kg; half-life [18]: 198 min; bioavailability [19]: 2% |
| N[C@H]1CCCC[C@H]1Nc1cc2nc[nH]c(=O)c2c(Nc2cccc3c(Cl)c[nH]c23)n1 | 6.66 | 815 | 34 | 1810 | 19 | 320 | 1000 |  | IC50 [20]: 20 µM |
| Cc1nc2cc(N[C@@H]3CCCC[C@@H]3N)nc(Nc3cccc4c(C)c[nH]c34)c2c(=O)[nH]1 |  | > 10000 | 480 | > 10000 | 59 |  | > 10000 |  | t1/2 [7]: > 2 h; t1/2 (Liver): > 2 h |
| Cn1cc2c(Nc3nc(N[C@@H]4CCOC[C@@H]4N)cc4cc[nH]c(=O)c34)cccc2n1 | 1.44 | 18 | 1 |  | 22 | 78 | 190 | 376 | IC50 [20]: > 30 µM; t1/2 [7]: > 2 h; t1/2 (Liver): > 2 h |
| Cc1c[nH]c2c(Nc3nc(N[C@@H]4CCCC[C@@H]4N)cc4nc[nH]c(=O)c34)cccc12 | 3.8 | 33 | 2 | 190 | 25 | 47 | 44 | 805 | Papp B→A [10]: 9.6 ×10⁻⁶ cm/s; Papp A→B [11]: 9.5 ×10⁻⁶ cm/s; IC50 [20]: > 30 µM; AUC/dose (Rattus norvegicus [12]): 1109 nM·h; clearance [13]: 39 mL/min/kg; Cmax/dose (Rattus norvegicus [14]): 4 nM; AUC/dose (Rattus norvegicus [15]): 40 nM·h; Vd [16]: 19 L/kg; half-life [18]: 780 min; bioavailability [19]: 4% |
